Series [1] is described as follows: Separation of switchable solvent from soybean oil with CO2/carbonated water (Examples 2A, 2C). The class given is physicochemical. Here is the method:
A 4 mL vial was prepared containing 1.0 mL D2O, 0.5 mL BA and 0.5 mL soybean oil. The vial was shaken thoroughly and allowed to settle, showing a 1.0 mL upper layer (soybean oil and BA) and a 1.0 mL lower layer (D2O). ^1H NMR samples (50 μL) were withdrawn from each layer and mixed with methanol-d4 (0.5 mL) containing a dioxane internal standard (51.5 mM). Another sample was withdrawn from the upper layer for ^1H NMR analysis in CDCl3, because soybean oil is not miscible with methanol. The same volume was discarded from the bottom layer to maintain the initial ratio.
CO2 was bubbled through the system for 1.5 h, at which time the top layer appeared to have halved in volume. Using the same system, ^1H NMR analysis was again conducted on both layers, the bottom layer in methanol-d4 and the top layer in CDCl3.
A 1.0 mL portion of the bottom layer was withdrawn and transferred to a new 4.0 mL vial. A magnetic stirrer was added and the vial was stirred at 80° C. for 1 h. Samples were withdrawn from both layers for ^1H NMR analysis in methanol-d4 with reference to the dioxane internal standard.
The switching behavior of BA in the presence of soybean oil was studied qualitatively and by ^1H NMR spectroscopy as shown in FIG. 11. The top spectrum is that of soy oil. The middle spectrum is that of the upper (organic) phase after the mixing of the BA, soy oil and D2O. This upper phase comprises soy oil and BA. The bottom spectrum is that of the upper (organic) phase after the addition of the CO2 trigger and comprises predominantly soy oil and any residual solvent.
The most informative ^1H NMR spectra in this experiment were those showing the separation of the soy oil and BA. Based on the integration of the peak corresponding to BA at 3.17 ppm in these spectra, 96% of the amidine was removed from the upper soybean oil layer after switching to its hydrophilic BAB form. Other spectra (not shown), collected in methanol-d4 with a dioxane internal standard, confirmed the switching behavior presented in Example 1 above, showing 11% retention of BA in the aqueous phase after heating.
It was possible to remove a high percentage of N1,N1,N4,N4-tetraethylbutane-1,4-diamine from the soybean oil be mixing with carbonated water. The percentage removal was 98.65%. In contrast, 96% of BA was removed from the soybean oil.

Series [2] in a line: Polarity study with solvatochromatic dye Nile Red (Example 3). The class given is physicochemical. The following applies: water-saturated BA or aqueous solution of BAB. Here is the method: The maximum wavelength of absorption, λmax, of a switchable hydrophilicity solvent, N,N,N′-tributylpentanamidine (BA), was analyzed in its hydrophobic and hydrophilic forms using the solvatochromatic dye, Nile Red. A 1 Dram vial was prepared containing 1 mL of distilled water to which 1 mL of BA was added. […] This ensured saturation of the BA phase with water. The top phase comprising the BA liquid was pipetted into a quartz cuvette (Semi-Micro Cells, Self Masking Black Walls Spectrosil® Quartz, Starna Cells, Atascadero, Calif., USA) and 1 mg of Nile Red was added, to provide a bright orange-magenta solution. The ultraviolet absorbance spectrum was acquired on an Agilent Technologies ultraviolet/visible spectrometer 50-60 Hz with UV-Visible Chemstation software. The λmax was 510 nm. Distilled water (1.0 mL) was then added to the quartz cuvette and carbon dioxide was slowly bubbled into the mixture for 1 hour to switch the BA to its ionic form, N,N,N′-tributylpentanamidinium bicarbonate (BAB), after which the homogenous mixture turned purple. The ultraviolet absorbance spectrum of the aqueous solution of the dye and ionic salt was then acquired as discussed in the previous paragraph. The λmax was 570 nm.

Entries after “also recorded” stand apart in the source; their conditions may differ.

For the compound `CCCCN=C(CCCC)N(CCCC)CCCC` [BA, N,N,N′-tributylpentanamidine], the “solvent removed from soybean oil after switching to hydrophilic form” value in series [1] (CO2 / carbonated water) came to 96%. For the same compound, the “miscibility with soybean oil” value in series [1] (neutral hydrophobic form) is recorded as “miscible with soy oil; also recorded: miscible with soybean oil”. Besides, the “retention of BA in the aqueous phase after heating” value in series [1] (soybean oil experiment, 80 °C, 1 h, dioxane internal standard) stood at 11%. Further, the “maximum wavelength of absorption (λmax) of Nile Red” value in series [2] was 510 nm.

For the origin of these results see patent US8900444B2, “Switchable hydrophilicity solvents and methods of use thereof” (Queen's University at Kingston, priority 2009, dated 2014).
